# According to patent publication US20170065667A1, “METHODS FOR SYNCHRONIZATION OF ESTROUS CYCLES AND OVULATION FOR FIXED TIME ARTIFICIAL INSEMINATION IN CATTLE” (Parnell Technologies Pty Ltd., priority 2014, published 2017):
# Values joined by “and” are separate entries in the source; they are usually repeats but may differ in a detail not shown here. Equal values may be shown once. Read-outs that look alike come from different tables or passages of the source.
# Assays:
# [1] = test system: lactating dairy cows; assay: Experiment 2: P/AI on 11 commercial dairies, Ovsynch vs. Ovsynch + second cloprostenol sodium injection; assay type: in vivo, cattle
# Method: An experiment was performed on 11 commercial dairies in different locations in the United States: 3 dairies in Wisconsin; 3 dairies in California; 2 dairies in New York; 1 dairy in Pennsylvania; 1 dairy in New Mexico; and 1 dairy in Texas. Although overall management was quite different for each herd, each herd used the same reproductive management protocol during this experiment. Cows were randomly assigned within herd, parity, and date to one of three treatment groups at about 40 to about 46 days in milk. One of the treatment groups, Presynch-Ovsynch with heat detection, was not considered in the present analysis. Therefore only two treatment groups were utilized for all analyses, as shown in the diagram for Experiment 2 in FIG. 2.
# All animals were synchronized using a GnRH composition (about 100 mcg of gonadorelin acetate per mL, GONAbreed®, Parnell Technologies Pty Ltd, Alexandria, Australia) and a PGF2α analog composition (about 250 mcg of cloprostenol sodium per mL, estroPLAN®, Parnell Technologies Pty Ltd, Alexandria, Australia).
# (§1) One treatment group began at about 47 to about 53 days in milk where the cows received a first 1 mL intramuscular injection of a gonadorelin acetate composition. At about 54 to about 60 days in milk, the cows received a first 2 mL intramuscular injection of a cloprostenol sodium composition. At about 56 to about 62 days in milk (about 56 hours after the first injection of the cloprostenol sodium composition), the cows received a second 1 mL intramuscular injection of a gonadorelin acetate composition. And at about 57 to about 63 days in milk (about 16 hours after the second injection of the gonadorelin acetate composition), the animals received AI, concluding the Ovsynch phase.
# as §1, with “The other treatment group” for “One treatment group”, “a first 2 mL intramuscular injection of a cloprostenol sodium composition. At about 55 to about 61 days in milk (about 24 hours after the first injection of the cloprostenol sodium composition), the cows received a second 2 mL” for “a first 2 mL”
# Pregnancy diagnosis was performed with ultrasound utilizing the normal schedule for each herd (Wisconsin and Pennsylvania herds, 31-33 days after AI; California, New York, New Mexico, and Texas herds, 37-43 days after AI). Data on all treatments, AI, and pregnancy diagnosis were recorded for each individual cow in most cases (n=1,912). In some cows, data was extrapolated from other recorded data due to missing one treatment recording (n=110) or two or more treatment recordings in a cow (n=126). Pregnancy was based on a verified pregnancy diagnosis. Non-pregnancy was based on absence of pregnancy at a pregnancy diagnosis or a rebreeding to an estrus prior to pregnancy diagnosis. Statistical analyses were performed using PROC Logistic in SAS. Treatment and parity were forced into the model and factors were kept in the model if they were significant at P<0.15.
# [2] = test system: lactating dairy cows; assay: Combined analysis of Experiments 1 and 2: effect of second cloprostenol sodium injection on P/AI; assay type: in vivo, cattle; conditions: Experiments 1 and 2 combined
# From the text: Experiment 1 and Experiment 2 were done with a similar experimental design and therefore results were combined in order to more thoroughly test the effect of a second cloprostenol sodium injection in the Ovsynch protocol on P/AI. There was no effect of the second PGF on P/AI in primiparous cows (P=0.304). However in multiparous cows, the second cloprostenol sodium injection increased (P=0.046) P/AI by about 12%. This effect of a second cloprostenol sodium injection on P/AI was also observed when all cows were included in the analysis (P=0.042). The final combined analysis of both experiments provided the most statistical power to test our main hypothesis (Table 6). Overall, there was increased (P=0.042) P/AI with a 9.6% relative increase in fertility. As in both experiments, the effect was only statistically detectable in multiparous (P=0.046) and not in primiparous (P=0.304) cows. In our study an effect of parity on fertility was only detected in cows treated with Ovsynch (P=0.04) and not in cows treated with Ovsynch with the second PGF treatment (P=0.17). Future studies should directly test whether parity effects with Ovsynch-type protocols are related primarily to differences in CL regression between parities or reflect other fertility differences related to parity.
# [3] = test system: lactating dairy cows; conditions: cited from earlier work; for percentage of cows with complete CL regression (<0.4 ng/mL 56 hours after PGF2α): 7 day Ovsynch
compound,measurement,setting,value
O=C(O)CCC/C=C\CC1C(O)CC(O)C1/C=C/C(O)COc1cccc(Cl)c1 (stereo not shown) [cloprostenol sodium],"Effect of second cloprostenol sodium injection, Difference in P/AI",[1]; All Multiparous,+10.65% (P = 0.073)
same,"Effect of second cloprostenol sodium injection, Difference in P/AI",[1]; Fourth or Greater lactation,+0.09% (P = 0.517)
same,"P/AI, % (n/n)","[1]; Ovsynch (one cloprostenol sodium injection), farm CA-01",29.4%
same,percentage of cows pregnant per AI,"[1]; Ovsynch (one injection), All Multiparous",32.01 (259/809) %
same,percentage of cows pregnant per AI,"[1]; Ovsynch (one injection), Fourth or Greater lactation",30.09 (65/216) %
same,percentage of cows pregnant per AI,"[1]; Ovsynch (one injection), Primiparous",37.07 (99/267) %
same,percentage of cows pregnant per AI,"[1]; Ovsynch (one injection), Second and Third lactation",32.71 (194/593) %
same,"P/AI, % (n/n)","[1]; Ovsynch (one injection), Total of 11 farms",33.3%
same,"P/AI, % (n/n)","[1]; Ovsynch (one injection), farm CA-02",35.3%
same,"P/AI, % (n/n)","[1]; Ovsynch (one injection), farm CA-O3",30.4%
same,"P/AI, % (n/n)","[1]; Ovsynch (one injection), farm NM-04",35.2%
same,"P/AI, % (n/n)","[1]; Ovsynch (one injection), farm NY-05",32.7%
same,"P/AI, % (n/n)","[1]; Ovsynch (one injection), farm NY-06",29.4%
same,"P/AI, % (n/n)","[1]; Ovsynch (one injection), farm PA-07",39.2%
same,"P/AI, % (n/n)","[1]; Ovsynch (one injection), farm TX-08",37.7%
same,"P/AI, % (n/n)","[1]; Ovsynch (one injection), farm WI-09",28.1%
same,"P/AI, % (n/n)","[1]; Ovsynch (one injection), farm WI-10",35.3%
same,"P/AI, % (n/n)","[1]; Ovsynch (one injection), farm WI-11",26.9%
same,"P/AI, % (n/n)","[1]; Ovsynch + second cloprostenol sodium injection, farm CA-01",36.4%
same,percentage of cows pregnant per AI,"[1]; Ovsynch + second injection, All Multiparous",35.42 (288/813) %
same,percentage of cows pregnant per AI,"[1]; Ovsynch + second injection, Fourth or Greater lactation",30.36 (68/224) %
same,percentage of cows pregnant per AI,"[1]; Ovsynch + second injection, Primiparous",38.22 (99/259) %
same,percentage of cows pregnant per AI,"[1]; Ovsynch + second injection, Second and Third lactation",37.35 (220/589) %
same,"P/AI, % (n/n)","[1]; Ovsynch + second injection, Total of 11 farms",36.1%
same,"P/AI, % (n/n)","[1]; Ovsynch + second injection, farm CA-02",39.8%
same,"P/AI, % (n/n)","[1]; Ovsynch + second injection, farm CA-O3",34.1%
same,"P/AI, % (n/n)","[1]; Ovsynch + second injection, farm NM-04",37.7%
same,"P/AI, % (n/n)","[1]; Ovsynch + second injection, farm NY-05",31.2%
same,"P/AI, % (n/n)","[1]; Ovsynch + second injection, farm NY-06",42.0%
same,"P/AI, % (n/n)","[1]; Ovsynch + second injection, farm PA-07",43.6%
same,"P/AI, % (n/n)","[1]; Ovsynch + second injection, farm TX-08",29.8%
same,"P/AI, % (n/n)","[1]; Ovsynch + second injection, farm WI-09",40.4%
same,"P/AI, % (n/n)","[1]; Ovsynch + second injection, farm WI-10",37.0%
same,"P/AI, % (n/n)","[1]; Ovsynch + second injection, farm WI-11",26.9%
same,"Effect of second cloprostenol sodium injection, Difference in P/AI",[1]; Second and Third lactation,+14.19% (P = 0.047)
same,"Effect of second cloprostenol sodium injection, relative difference in P/AI",[1]; Total of 11 farms,+8.50%
same,"Effect of second cloprostenol sodium injection, relative difference in P/AI",[1]; farm CA-01,+23.64%
same,"Effect of second cloprostenol sodium injection, relative difference in P/AI",[1]; farm CA-02,+12.99%
same,"Effect of second cloprostenol sodium injection, relative difference in P/AI",[1]; farm CA-O3,+12.03%
same,"Effect of second cloprostenol sodium injection, relative difference in P/AI",[1]; farm NM-04,+7.04%
same,"Effect of second cloprostenol sodium injection, relative difference in P/AI",[1]; farm NY-05,−4.47%
same,"Effect of second cloprostenol sodium injection, relative difference in P/AI",[1]; farm NY-06,+43.11%
same,"Effect of second cloprostenol sodium injection, relative difference in P/AI",[1]; farm PA-07,+10.98%
same,"Effect of second cloprostenol sodium injection, relative difference in P/AI",[1]; farm TX-08,−20.86%
same,"Effect of second cloprostenol sodium injection, relative difference in P/AI",[1]; farm WI-09,+43.75%
same,"Effect of second cloprostenol sodium injection, relative difference in P/AI",[1]; farm WI-10,−4.94%
same,"Effect of second cloprostenol sodium injection, relative difference in P/AI",[1]; farm WI-11,0.0%
same,"Effect of second cloprostenol sodium injection, Difference in P/AI",[1]; primiparous,+3.10% (P = 0.393)
same,increase in P/AI by second cloprostenol sodium injection,[2]; multiparous cows,about 12%
same,percentage of cows with complete CL regression,"[3]; dinoprost 25 mg, cloprostenol 0.5 mg",79%
same,effect on CL regression of increasing the dose,"[3]; dose from 500 to 750 μg, 7 day protocol",increased CL regression in multiparous but not primiparous cows
prostaglandin F2α [PGF],"Effect of second cloprostenol sodium injection, relative difference in P/AI",[1]; Total of 11 farms,8.5%
same,absolute improvement in fertility due to the second PGF treatment,"[1]; all results combined, 11 farms",~3%
same,effect of the second PGF on P/AI,[2]; primiparous cows,no effect
same,% of cows with CL regression,[3]; cows that ovulated to the first GnRH,79.4%
same,% of cows not having complete CL regression,[3]; cows with a d7 and a d14 CL,8.2%
same,% of cows not having complete CL regression,[3]; cows with a single d7 CL,35.6%
same,% of cows not having complete CL regression,[3]; cows with a single d14 CL,3.0%
same,% of cows with CL regression,[3]; cows without ovulation to the first GnRH,93%
same,percentage of cows with complete CL regression (<0.4 ng/mL 56 hours after PGF2α),[3]; one PGF2α treatment (day 7),84.6%
same,% of cows with complete CL regression (<0.4 ng/mL at 56 hours after PGF2α),[3]; resynchronized at 32 days after TAI with Ovsynch (Resynch-32),83.7%
same,% of cows with complete CL regression (<0.4 ng/mL at 56 hours after PGF2α),[3]; resynchronized with Double-Ovsynch,89.1%
same,% of cows with lack of complete / inadequate CL regression,"[3]; single PGF2α treatment, Ovsynch-type protocols, literature",10 to 25% and 10-25%
same,percentage of cows with complete CL regression (<0.4 ng/mL 56 hours after PGF2α),[3]; two PGF2α treatments (day 7 and day 8),95.6%
